The values below come from publication PMC6212833 (mBio, 2018).

For orientation: % Inhibition means the change of the read-out against control, counted positive when it falls. In general, inhibition refers to the change of the read-out against control, counted positive when it falls. By IC50 is commonly meant the concentration at which inhibition is half-maximal.

Structures can show the parent of a compound that is named as a salt.

In the first assay the test system is B. mandrillaris trophozoites. Description: microbe, parasite or virus in culture. It is filed as cell-based, Balamuthia mandrillaris. The conditions noted are these: 20 µM.
With `NC(=O)NO` [Hydroxyurea], the “% Inhibition” value amounted to 44%.

As to Plicamycin, the “% Inhibition” value is 45%.

Still in this assay, the particulars now being: 20 µM, 72 h, relative to positive and negative controls.
`C[CH2][Hg][S]c1ccccc1C(=O)O` [Ethylmercurithiosalicylic acid]: the “% Inhibition” value stood at 107%.

`CC(=O)[O][Hg][c]1ccccc1` [Phenylmercuric Acetate]: the “% Inhibition” value turned out to be 107%.

Regarding Demecarium Bromide, the “% Inhibition” value came out at 60%.

Still in this assay, the particulars now being: Balamuthia mandrillaris, 72 h.
`C[n+]1c2cc(N)ccc2cc2ccc(N)cc21` [Acriflavinium Hydrochloride] gave an inhibition at 20 µM of 33%.

`CCCCC(CC)CNC(=N)NC(=N)NCCCCCCNC(=N)NC(=N)NCC(CC)CCCC` (stereo not shown) [Alexidine Hydrochloride] gave an inhibition at 20 µM of 79%.

`CC(C)c1c(C(=O)Nc2ccccc2)c(-c2ccccc2)c(-c2ccc(F)cc2)n1CC[C@@H](O)C[C@@H](O)CC(=O)O` [Atorvastatin] showed an inhibition at 20 µM of 40%.

In the case of `CO/N=C(\C(=O)N[C@@H]1C(=O)N2C(C(=O)O)=C(COC(N)=O)CS[C@H]12)c1ccco1` [Cefuroxime Sodium], the inhibition at 20 µM amounted to 41%.

`COCc1c(C(C)C)nc(C(C)C)c(/C=C/[C@@H](O)C[C@@H](O)CC(=O)O)c1-c1ccc(F)cc1` [Cerivastatin, Cerivastatin Na, Cerivastatin] displayed an inhibition at 20 µM of 66%.

In turn, `CCCCCCCCCCCCCCCC[N+](C)(C)C` [Cetrimonium] registered an inhibition at 20 µM of 56%.

`[H]/N=C(\N/C(=N/[H])NCCCCCCNC(=N)NC(=N)Nc1ccc(Cl)cc1)Nc1ccc(Cl)cc1` [Chlorhexidine] showed an inhibition at 20 µM of 64%.

`Cc1cc(N)c2ccccc2[n+]1CCCCCCCCCC[n+]1c(C)cc(N)c2ccccc21` [Dequadin] came in with an inhibition at 20 µM of 69%.

On to `Oc1ccc(Cl)cc1Cc1cc(Cl)ccc1O` [Dichlorophene, Dichlorophen, Dichlorophene], for which 20 µM produced 42% inhibition.

Turning to `N=C(N)c1ccc(/N=N/Nc2ccc(C(=N)N)cc2)cc1` [Diminazene], the inhibition at 20 µM turned out to be 46%.

For `O=C(O)c1ccccc1-c1c2cc(I)c(=O)c(I)c-2oc2c(I)c(O)c(I)cc12` [Erythrosine Sodium], at 20 µM the inhibition was 66%.

`Cc1cc(-c2ccc(/N=N/c3ccc4c(S(=O)(=O)O)cc(S(=O)(=O)O)c(N)c4c3O)c(C)c2)ccc1/N=N/c1ccc2c(S(=O)(=O)O)cc(S(=O)(=O)O)c(N)c2c1O` [Evans Blue] displayed an inhibition at 20 µM of 74%.

The compound `C=C1C[C@@H]2[C@H](CC[C@]3(C)C(=O)CC[C@@H]23)[C@@]2(C)C=CC(=O)C=C12` [Exemestane] yielded an inhibition at 20 µM of 47%.

`CN(C)c1ccc(C(=C2C=CC(=[N+](C)C)C=C2)c2ccc(N(C)C)cc2)cc1` [Gentian Violet]: testing at 20 µM gave an inhibition of 62%.

As to `CC[n+]1c(-c2ccccc2)c2cc(N)ccc2c2ccc(N)cc21` [Homidium Bromide], the inhibition at 20 µM was found to be 44%.

Regarding `CN(C)CCCN1c2ccccc2CCc2ccccc21` [Imipramine], 20 µM produced 42% inhibition.

In turn, `CC#C[C@]1(O)CC[C@H]2[C@@H]3CCC4=CC(=O)CCC4=C3[C@@H](c3ccc(N(C)C)cc3)C[C@@]21C` [Mifepristone] gave an inhibition at 20 µM of 43%.

Regarding `NC(=O)c1ccc[n+]([C@@H]2O[C@H](COP(=O)([O-])OP(=O)(O)OC[C@H]3O[C@@H](n4cnc5c(N)ncnc54)[C@H](O)[C@@H]3O)[C@@H](O)[C@H]2O)c1` [Nadide], testing at 20 µM gave an inhibition of 87%.

`Cc1c(NC(=O)c2cccnc2)c(=O)n(-c2ccccc2)n1C` [Nifenazone] registered an inhibition at 20 µM of 70%.

Compound `CNC(=C[N+](=O)[O-])NCCSCc1ccc(CN(C)C)o1` [Ranitidine] yielded an inhibition at 20 µM of 68%.

A further assay relates to B. mandrillaris trophozoites. The assay is described as follows: Secondary screening dose response, B. mandrillaris trophozoites. It is filed as cell-based, Balamuthia mandrillaris. As to conditions: 72 h; approximated from dose-response curves; read-out: B. mandrillaris IC50.
Experimental: (§1) Secondary screening of hit compounds consisted of dose-response experiments to measure the toxicity of each compound to B. mandrillaris trophozoites, HFF-1 human fibroblast cells, and H4 human neuroglioma cells. Four 384-well plates were prepared prior to addition of drug as follows: one opaque plate (Corning) seeded with 3,000 HFF-1 cells per well in 60 µl complete media, one opaque plate seeded with 2,000 H4 cells per well in 60 µl complete media, one opaque plate containing 30 µl axenic media, and one clear plate (Corning) containing 30 µl axenic media. Opaque plates were used to measure the viability of trophozoites in the CTG assay, and clear plates were used for microscopic examination of cyst formation. HFF-1 and H4 plates were seeded 24 h prior to drug addition. The selected primary screen hits were added from 10 mM DMSO stocks into wells of all four test plates to reach final concentrations ranging from 0.06 µM to 30 µM (10 concentrations, 2-fold serial dilution). Negative-control wells received concentrations of DMSO corresponding to the amount of DMSO in each tested drug well (reaching a maximum of 0.3% DMSO). B. mandrillaris trophozoites were resuspended in axenic media and added to the plates containing drug dilutions in axenic media at a density of 3,000 amoebae per well in a final volume of 60 µl media. All plates were incubated for 72 h. Throughout the incubation period, the clear-bottom B. mandrillaris plate was monitored for large-scale changes to population encystment in response to drug treatment. After the 72-h incubation, 30 µl of CTG reagent was added to all wells of the opaque assay plates and luminescence was measured with a Promega GloMax-Multi+ plate reader at 2, 4, and 8 h after CTG addition.
As for Plicamycin, the IC50 was more than 30 µM.

Staying with this assay, now noted: Balamuthia mandrillaris, 72 h, read-out: B. mandrillaris IC50.
As to `CC(C)c1c(C(=O)Nc2ccccc2)c(-c2ccccc2)c(-c2ccc(F)cc2)n1CC[C@@H](O)C[C@@H](O)CC(=O)O` [Atorvastatin], the IC50 was more than 30 µM.

Regarding `COCc1c(C(C)C)nc(C(C)C)c(/C=C/[C@@H](O)C[C@@H](O)CC(=O)O)c1-c1ccc(F)cc1` [Cerivastatin, Cerivastatin Na, Cerivastatin], the IC50 turned out to be 9 µM.

Take `C=C1C[C@@H]2[C@H](CC[C@]3(C)C(=O)CC[C@@H]23)[C@@]2(C)C=CC(=O)C=C12` [Exemestane]: the IC50 is more than 30 µM.

`CN(C)CCCN1c2ccccc2CCc2ccccc21` [Imipramine]: the concentration for half-maximal inhibition (IC50) was more than 30 µM.

`CC#C[C@]1(O)CC[C@H]2[C@@H]3CCC4=CC(=O)CCC4=C3[C@@H](c3ccc(N(C)C)cc3)C[C@@]21C` [Mifepristone]: the IC50 was more than 30 µM.

Turning to `Cc1c(NC(=O)c2cccnc2)c(=O)n(-c2ccccc2)n1C` [Nifenazone], the IC50 was more than 30 µM.

Turning to `CNC(=C[N+](=O)[O-])NCCSCc1ccc(CN(C)C)o1` [Ranitidine], the IC50 is more than 30 µM.

In another assay the test system is HFF-1 human fibroblast cells. Description: Secondary screening dose response, toxicity to HFF-1 cells. It is filed as cell-based. As to conditions: 72 h; approximated from dose-response curves; read-out: HFF1 IC50.
Experimental: as §1
In the case of Plicamycin, the IC50 is less than 0.06 µM.

The same assay, now with this note: Homo sapiens, HFF-1; 72 h; approximated from dose-response curves; read-out: HFF1 IC50.
For `CC(C)c1c(C(=O)Nc2ccccc2)c(-c2ccccc2)c(-c2ccc(F)cc2)n1CC[C@@H](O)C[C@@H](O)CC(=O)O` [Atorvastatin], the IC50 is more than 30 µM.

`COCc1c(C(C)C)nc(C(C)C)c(/C=C/[C@@H](O)C[C@@H](O)CC(=O)O)c1-c1ccc(F)cc1` [Cerivastatin, Cerivastatin Na, Cerivastatin]: the IC50 was less than 0.06 µM.

In the case of `C=C1C[C@@H]2[C@H](CC[C@]3(C)C(=O)CC[C@@H]23)[C@@]2(C)C=CC(=O)C=C12` [Exemestane], the IC50 was more than 30 µM.

In the case of `CN(C)CCCN1c2ccccc2CCc2ccccc21` [Imipramine], the half-maximal inhibitory concentration (IC50) was more than 30 µM.

For `CC#C[C@]1(O)CC[C@H]2[C@@H]3CCC4=CC(=O)CCC4=C3[C@@H](c3ccc(N(C)C)cc3)C[C@@]21C` [Mifepristone], the IC50 was more than 30 µM.

Consider `Cc1c(NC(=O)c2cccnc2)c(=O)n(-c2ccccc2)n1C` [Nifenazone], for which the IC50 was more than 30 µM.

Take `CNC(=C[N+](=O)[O-])NCCSCc1ccc(CN(C)C)o1` [Ranitidine]: the IC50 was more than 30 µM.

The subject of another assay is H4 human neuroglioma cells. The assay is described as follows: Secondary screening dose response, toxicity to H4 cells. It is filed as cell-based. The conditions noted are these: 72 h; approximated from dose-response curves.
Plicamycin yielded a half-maximal inhibitory concentration (IC50) of less than 0.06 µM.

Staying with this assay, now noted: Homo sapiens; 72 h; approximated from dose-response curves.
`CC(C)c1c(C(=O)Nc2ccccc2)c(-c2ccccc2)c(-c2ccc(F)cc2)n1CC[C@@H](O)C[C@@H](O)CC(=O)O` [Atorvastatin] came in with an IC50 of more than 30 µM.

`COCc1c(C(C)C)nc(C(C)C)c(/C=C/[C@@H](O)C[C@@H](O)CC(=O)O)c1-c1ccc(F)cc1` [Cerivastatin, Cerivastatin Na, Cerivastatin] came in with an IC50 of 0.2 µM.

The compound `C=C1C[C@@H]2[C@H](CC[C@]3(C)C(=O)CC[C@@H]23)[C@@]2(C)C=CC(=O)C=C12` [Exemestane] registered an IC50 of more than 30 µM.

As to `CN(C)CCCN1c2ccccc2CCc2ccccc21` [Imipramine], the IC50 is more than 30 µM.

In the case of `CC#C[C@]1(O)CC[C@H]2[C@@H]3CCC4=CC(=O)CCC4=C3[C@@H](c3ccc(N(C)C)cc3)C[C@@]21C` [Mifepristone], the IC50 is more than 30 µM.

With `Cc1c(NC(=O)c2cccnc2)c(=O)n(-c2ccccc2)n1C` [Nifenazone], the IC50 was more than 30 µM.

As to `CNC(=C[N+](=O)[O-])NCCSCc1ccc(CN(C)C)o1` [Ranitidine], the IC50 was more than 30 µM.

For another assay, the system named is B. mandrillaris trophozoites. Description: Nitroxoline structure-activity relationship dose response (CellTiter Glo). The class given is cell-based, Balamuthia mandrillaris. As to conditions: 72 h, 8-point dose response in triplicate; listed as 8-Hydroxy-5-quinolinesulfonic acid [13]. In general terms: ATP-based viability assays read luminescence as a measure of living cells.
In turn, `O=S(=O)(O)c1ccc(O)c2ncccc12` [compound 13, 8-Hydroxy-5-quinolinesulfonic acid] had a half-inhibitory concentration (IC50) of 338 µM.

The assay is the same for the next values; noted with them: 72 h, 8-point dose response in triplicate; read-out: IC50.
Regarding 6-Nitroquinolone [compound 15], the half-maximal inhibitory concentration (IC50) worked out at 189 µM.

For `[O-][n+]1cccc2cccc(O)c21` [compound 16, 8-Quinolinol N-oxide], the IC50 was 165 µM.

`CCOc1ccc([N+](=O)[O-])c2cccnc12` [compound 17, 8-Ethoxy-5-nitroquinoline]: the IC50 is 434 µM.

Still in this assay, the particulars now being: Balamuthia mandrillaris, 72 h.
`O=C(O)c1ccc2ccccc2n1` [compound 18, 2-Quinolinecarboxylic acid] came in with a half-inhibitory concentration (IC50) of 884 µM.

Staying with this assay, now noted: Balamuthia mandrillaris, 72 h, 8-point dose response in triplicate.
As for `O=S(=O)(O)c1ccc(O)c2ncccc12` [compound 13, 8-Hydroxy-5-quinolinesulfonic acid], the midpoint of inhibition, the IC50, lay at 338 µM.

In turn, `c1cnc2c(c1)ccc1cccnc12` [compound 14, 1,10-Phenanthroline] returned an IC50 of 15.9 µM.

Compound `O=[N+]([O-])c1cnc2ccccc2c1O` [compound 19, 3-Nitro-4-quinolinol] returned an IC50 of 1320 µM.

Staying with this assay, now noted: Balamuthia mandrillaris, 72 h, 8-point dose response in triplicate; read-out: IC50.
Take `Oc1cccc2cccnc12` [compound 2, 8-Hydroxyquinoline]: the IC50 turned out to be 30.5 µM.

`O=[N+]([O-])c1cccc2ncccc12` [compound 3, 5-Nitroquinoline]: the IC50 was 82.7 µM.

On to `Oc1ccc(Br)c2cccnc12` [compound 6, 5-Bromo-8-hydroxyquinoline], for which the IC50 stood at 48.9 µM.

As for `Cc1ccc(O)c2ncccc12` [compound 7, 5-Methylquinolin-8-ol], the IC50 is 19.9 µM.

Staying with this assay, now noted: SAR experiments.
With `O=S(=O)(O)c1ccc(O)c2ncccc12` [compound 13, 8-Hydroxy-5-quinolinesulfonic acid], the “activity against B. mandrillaris” value was “inactive”.

As for `c1cnc2c(c1)ccc1cccnc12` [compound 14, 1,10-Phenanthroline], the “activity against B. mandrillaris” value is given as “demonstrated activity against B. mandrillaris”.

The next assay concerns B. mandrillaris.
Test: not given
Set-up: method as in PMID 15347743, PMID 23869955, PMID 16579814. The conditions noted are these: in vitro; cited from earlier work.
On to `OC(Cn1cncn1)(Cn1cncn1)c1ccc(F)cc1F` [fluconazole], for which the “inhibition of amoebic growth” value is listed as “little to no inhibition”.

`Nc1[nH]c(=O)ncc1F` [flucytosine]: the “inhibition of amoebic growth” value is given as “little to no inhibition”.

For the compound `Nc1ccc(S(=O)(=O)Nc2ncccn2)cc1` [sulfadiazine], the “inhibition of amoebic growth” value is reported as “little to no inhibition”.

`C[C@@H](c1ncncc1F)[C@](O)(Cn1cncn1)c1ccc(F)cc1F` [voriconazole]: the “inhibition of amoebic growth” value is “amoebicidal or amoebistatic activity”.
